The text below walks through data of ChEMBL document CHEMBL4483862, “Open-source discovery of chemical leads for next-generation chemoprotective antimalarials” (2018).

The subject of the assay is Plasmodium berghei. In words: Luciferase/luciferin-expressing antifolate-resistant parasites were used to infect a culture of HepG2 cells that were pre-incubated with compounds. Infected hepatocytes emit light due to the luciferase reaction. Assay results are presented as the percent inhibition of light emission compared to control. […]. The note with it: sporozoite; for IC90: read-out: LUCIFERASE INFECTION ASSAY - IC90. It is filed as functional.

Setting [1] is: read-out: LUCIFERASE INFECTION ASSAY - IC50.

Consider `COc1cc(OC)cc(-c2cnc3cnc(-c4cccc(OC(C)C)c4)cn23)c1`, for which the IC90 was more than 8.47 µM. Further, the IC50 (PBLUC_HILL_SLOPE 3.99, PBLUC_R_SQUARED 0.348, read-out: LUCIFERASE INFECTION ASSAY - IC50) stood at 6.48 µM.
As for `c1ccc(-c2cnc3sc(NCCc4ccncc4)nn23)cc1`, the IC90 is more than 10.3 µM. Also, the half-maximal inhibitory concentration (IC50) under setting [1] is more than 10.3 µM.
In the case of `Cc1cc(C)c(S(=O)(=O)Nc2cc(C)nn2-c2ccccn2)c(C)c1`, the IC90 amounted to 3.28 µM. The IC50 (HEPG2TOX_HILL_SLOPE 1.93, HEPG2TOX_R_SQUARED 0.937, PBLUC_HILL_SLOPE 16.1, PBLUC_R_SQUARED 0.725, read-out: LUCIFERASE INFECTION ASSAY - IC50) worked out at 2.86 µM.
Regarding `COc1ccc(C(N)=O)c(OCC(=O)c2cc(C)n(Cc3ccccc3)c2C)c1`, the IC90 is 9.51 µM. The IC50 (HEPG2TOX_HILL_SLOPE 1.79, HEPG2TOX_R_SQUARED 0.962, PBLUC_HILL_SLOPE 4.42, PBLUC_R_SQUARED 0.333, read-out: LUCIFERASE INFECTION ASSAY - IC50) is 5.78 µM.
With `Cc1ccccc1CN1CCN2C=C(C(=O)Nc3ccc(OCc4ccccc4)cc3)OC2=NC1=O`, the IC90 was more than 10 µM. Under setting [1], the half-maximal inhibitory concentration (IC50) was more than 10 µM.
For the compound `CCN(c1ccccc1)S(=O)(=O)c1ccc(Sc2ccc(C)cc2C)nc1`, the IC90 is more than 10 µM. Besides, the IC50 (HEPG2TOX_HILL_SLOPE 0.198, HEPG2TOX_R_SQUARED 0.716, PBLUC_HILL_SLOPE 11.9, PBLUC_R_SQUARED 0.0318, read-out: LUCIFERASE INFECTION ASSAY - IC50) is 9.38 µM.
Turning to `CCCC1C/C(=C/c2ccc(C(=O)NC)cc2)C(=O)/C(=C/c2ccc(C(=O)NC)cc2)C1` (stereo not drawn), the IC90 is 3.86 µM. Also, the IC50 under setting [1] turned out to be 3.29 µM.
Take `O=C(Nc1cc(Cl)cc(Cl)c1)c1cc(Cl)ccc1O`: the IC90 was found to be 1.1 µM. The IC50 (HEPG2TOX_HILL_SLOPE 1.87, HEPG2TOX_R_SQUARED 0.915, PBLUC_HILL_SLOPE 2.8, PBLUC_R_SQUARED 0.713, read-out: LUCIFERASE INFECTION ASSAY - IC50) was 0.502 µM.
Regarding `Cc1nn(-c2ccc(C(F)(F)F)cn2)c2ncc(CCCO)cc12`, the IC90 was more than 10 µM. The half-maximal inhibitory concentration (IC50) (HEPG2TOX_HILL_SLOPE 0.869, HEPG2TOX_R_SQUARED 0.0884, read-out: LUCIFERASE INFECTION ASSAY - IC50) was more than 10 µM.
Consider `CCN1C(=O)N(Cc2cccc(OC)c2)C(=O)C12CCN(Cc1cn(C)c3ccccc13)CC2`, for which the IC90 was more than 7.16 µM. The IC50 (PBLUC_HILL_SLOPE 4.47, PBLUC_R_SQUARED 0.0939, read-out: LUCIFERASE INFECTION ASSAY - IC50) came to 6.08 µM.
On to `Cc1ccc(NC(=O)Cc2csc(NC(=O)C3CC3)n2)cc1Cl`, for which the IC90 was more than 10 µM. Besides, the IC50 (FFLUC_HILL_SLOPE 0.917, FFLUC_R_SQUARED 0.0768, HEPG2TOX_HILL_SLOPE 0.677, HEPG2TOX_R_SQUARED 0.444, PBLUC_HILL_SLOPE 1.82, PBLUC_R_SQUARED 0.301, read-out: LUCIFERASE INFECTION ASSAY - IC50) is more than 10 µM.
With `CCc1cccc2c(C(=O)COC(=O)C3CCN(S(=O)(=O)c4ccc(Cl)c(C(F)(F)F)c4)CC3)c[nH]c12`, the IC90 is more than 10 µM. In addition, the IC50 (FFLUC_HILL_SLOPE 3.04, FFLUC_R_SQUARED 0.433, read-out: LUCIFERASE INFECTION ASSAY - IC50) was more than 10 µM.
As for `COC(=O)[C@@H](NC(=O)Nc1ccc(-c2nc3ccccc3s2)cc1)C(C)C`, the IC90 is more than 8.61 µM. Besides, the IC50 (FFLUC_HILL_SLOPE 0.533, FFLUC_R_SQUARED 0.87, PBLUC_HILL_SLOPE 0.528, PBLUC_R_SQUARED 0.783, read-out: LUCIFERASE INFECTION ASSAY - IC50) stood at 0.264 µM.
Regarding `Cc1cc2ncc(-c3ccnc(SCC(=O)Nc4ccc(Cl)cc4Cl)n3)c(C)n2n1`, the IC90 is more than 7.18 µM. Besides, the IC50 (PBLUC_HILL_SLOPE 0.44, PBLUC_R_SQUARED 0.0613, read-out: LUCIFERASE INFECTION ASSAY - IC50) is more than 7.18 µM.
Turning to `COc1cccc2sc(NC(=O)C3CCN(C(C)=O)CC3)nc12`, the IC90 is more than 10 µM. For the same compound, under setting [1], the IC50 was more than 10 µM.
Consider `COc1cccc(Nc2nc(C(N)Cc3ccc(C(F)(F)F)cc3)cs2)n1` (stereo not drawn), for which the IC90 came out at 3.58 µM. Where the note is “PBLUC_HILL_SLOPE 179, PBLUC_R_SQUARED 0.233, read-out: LUCIFERASE INFECTION ASSAY - IC50”, the IC50 came to 3.53 µM.
As to `CCN(CC)c1ccc(/C=C2\CCC(/C=N/NC(=O)NC3CCCCC3)=C2N2CCOCC2)cc1`, the IC90 is more than 10 µM. The IC50 under setting [1] is more than 10 µM.
Take `NNC(=O)COc1ccccc1CSc1ccc(Cl)cc1`: the IC90 was more than 10.2 µM. Under setting [1], the IC50 is more than 10.2 µM.
For `COc1ccc(CC(N)c2csc(NC(=O)Nc3ccccc3Oc3ccccc3)n2)cc1` (stereo not drawn), the IC90 was more than 7.17 µM. The IC50 under setting [1] is more than 7.17 µM.
Turning to `Cc1ccc(S(=O)(=O)Nc2cccc3ncccc23)s1`, the IC90 was 3.72 µM. In addition, the IC50 (HEPG2TOX_HILL_SLOPE 1.87, HEPG2TOX_R_SQUARED 0.954, PBLUC_HILL_SLOPE 8.9, PBLUC_R_SQUARED 0.583, read-out: LUCIFERASE INFECTION ASSAY - IC50) is 2.91 µM.
In the case of `CC(C)c1cc(C(=O)N2CCc3c(cc(-c4cccc(F)c4)c(=O)n3CCN3CCCCC3)C2)[nH]n1`, the IC90 is more than 6.71 µM. Besides, the IC50 (PBLUC_HILL_SLOPE 1.58, PBLUC_R_SQUARED 0.377, read-out: LUCIFERASE INFECTION ASSAY - IC50) came to 1.78 µM.
On to `CCN(CC)C(=O)CSc1nnc2nnc3cc(C)ccc3n12`, for which the IC90 was more than 9.99 µM. For the same compound, the IC50 under setting [1] is more than 9.99 µM.
Consider `Cc1nc(-c2ccccc2)sc1C(=O)OC(C)C(=O)N1CCNC1=O` (stereo not drawn), for which the IC90 is more than 10 µM. In addition, under setting [1], the IC50 is more than 10 µM.
Take `CCCCCNC(=O)COC(=O)c1ccccc1-n1ncc(Cl)c(Cl)c1=O`: the IC90 amounted to 7.79 µM. Moreover, the IC50 (HEPG2TOX_HILL_SLOPE 4.14, HEPG2TOX_R_SQUARED 0.93, PBLUC_HILL_SLOPE 2.41, PBLUC_R_SQUARED 0.609, read-out: LUCIFERASE INFECTION ASSAY - IC50) amounted to 3.13 µM.
As to `Cn1nc(C(C)(C)C)cc1C(=O)Nc1ccc2nc(-c3cccs3)nn2c1`, the IC90 was more than 10 µM. Further, the IC50 under setting [1] is more than 10 µM.
Take `Cc1cc(C(C)(C)C)cc(C)c1CCNC(=O)c1ccc[n+]([O-])c1`: the IC90 was more than 10 µM. In addition, the IC50 under setting [1] was more than 10 µM.
As to `COc1ccc(C2C3CSc4ccccc4C3=NN2c2ccccc2)cc1` (stereo not drawn), the IC90 was more than 8.86 µM. For the same compound, the IC50 (FFLUC_HILL_SLOPE 1.37, FFLUC_R_SQUARED 0.894, PBLUC_HILL_SLOPE 1.03, PBLUC_R_SQUARED 0.404, read-out: LUCIFERASE INFECTION ASSAY - IC50) was determined as 4.95 µM.
For the compound `COc1ccc(NS(=O)(=O)c2cccc(C(=O)N/N=C(\c3ccccc3)c3ccccn3)c2)cc1`, the IC90 stood at 6.62 µM. Also, the IC50 (FFLUC_HILL_SLOPE 6.58, FFLUC_R_SQUARED 0.0766, HEPG2TOX_HILL_SLOPE 0.953, HEPG2TOX_R_SQUARED 0.956, PBLUC_HILL_SLOPE 1.34, PBLUC_R_SQUARED 0.562, read-out: LUCIFERASE INFECTION ASSAY - IC50) is 1.29 µM.
As for `O=C(Cn1cnc2scc(-c3ccccc3)c2c1=O)Nc1ccc([N+](=O)[O-])cc1`, the concentration for an effect of 90% (IC90) is more than 10 µM. Besides, the IC50 under setting [1] is more than 10 µM.
As for `Cc1ccc(-n2c(C)cc(C(=O)COc3c(CO)cc(F)cc3CO)c2C)cc1C`, the 90% effect concentration (IC90) was more than 10 µM. For the same compound, the IC50 (PBLUC_HILL_SLOPE 1.7, PBLUC_R_SQUARED 0.588, read-out: LUCIFERASE INFECTION ASSAY - IC50) amounted to 6.56 µM.
Consider `NC(=O)NC(=O)C(Nc1ccc(Oc2ccccc2)cc1)c1ccccc1` (stereo not drawn), for which the IC90 was more than 10 µM. Further, the IC50 under setting [1] is more than 10 µM.
For `O=C(Nc1cccc(Cl)c1)C1=COC2=NC(=O)N(Cc3ccccc3)CCN12`, the IC90 was more than 10 µM. Also, the IC50 (HEPG2TOX_HILL_SLOPE 1.91, HEPG2TOX_R_SQUARED 0.961, read-out: LUCIFERASE INFECTION ASSAY - IC50) was more than 10 µM.
On to `O=C(COc1cc(N2CCCC2=O)ccc1[N+](=O)[O-])NCc1ccco1`, for which the IC90 is more than 10 µM. The IC50 under setting [1] is more than 10 µM.
For `CCn1nnc2cc(C(=O)NC3CCc4nc(-c5ccccc5)ncc4C3)ccc21` (stereo not drawn), the IC90 is more than 10 µM. Where the note is “HEPG2TOX_HILL_SLOPE 0.553, HEPG2TOX_R_SQUARED 0.534, PBLUC_HILL_SLOPE 1.69, PBLUC_R_SQUARED 0.311, read-out: LUCIFERASE INFECTION ASSAY - IC50”, the IC50 is 4.68 µM.
`CCN(CCC#N)c1ccc(/C=C2/C(=O)Nc3cc(Cl)ccc32)c(C)c1`: the IC90 was more than 10 µM. The IC50 under setting [1] was more than 10 µM.
As for `O=C(Nc1ccncc1)c1cc(Br)c(Br)s1`, the IC90 is more than 10 µM. Also, the IC50 (PBLUC_HILL_SLOPE 0.742, PBLUC_R_SQUARED 0.564, read-out: LUCIFERASE INFECTION ASSAY - IC50) was found to be 4.29 µM.
`O=C(c1ccc(S(=O)(=O)C(F)(F)F)cc1)N1CCN(Cc2csc(-c3ccccc3)n2)CC1`: the IC90 was 4.21 µM. For the same compound, for the setting “HEPG2TOX_HILL_SLOPE 2.26, HEPG2TOX_R_SQUARED 0.817, PBLUC_HILL_SLOPE 12.1, PBLUC_R_SQUARED 0.456, read-out: LUCIFERASE INFECTION ASSAY - IC50”, the IC50 amounted to 3.51 µM.
In the case of `Cc1ccc2c(c1)C1CN(C)CCC1N2C(=O)c1sc2ccccc2c1Cl` (stereo not drawn), the IC90 came out at 6.62 µM. Moreover, where the note is “PBLUC_HILL_SLOPE 14.0, 2.64, PBLUC_R_SQUARED 0.410, 0.165, read-out: LUCIFERASE INFECTION ASSAY - IC50”, the IC50 was 3.64 µM.
In the case of `CCOc1ccccc1NC(=O)CN(C)S(=O)(=O)c1ccc(OC)c(C)c1`, the IC90 is more than 8.41 µM. Also, the IC50 under setting [1] was more than 8.41 µM.
